Test results reported in EPA's ToxValDB 9.5 (doi:10.2903/j.efsa.2016.4421).

Key:
[1] = test system: Aphidius rhopalosiphi; test: LR50; higher = less toxic; conditions: not reported, mortality
[2] = test system: Oncorhynchus mykiss; conditions: acute; duration: 96 hours; mortality
[3] = test system: Daphnia magna; conditions: chronic/long-term; duration: 21 days; growth
[4] = test system: Folsomia candida; conditions: chronic/long-term; reproduction
[5] = test system: Anas platyrhynchos; conditions: acute; oral; unspecified; mortality
[6] = test system: Oryctolagus sp.; conditions: reproduction developmental
[7] = test system: Hypoaspis aculeifer; conditions: chronic/long-term; reproduction
[8] = test system: Rattus norvegicus
[9] = test system: Apis mellifera; conditions: acute, mortality
[10] = test system: Colinus virginianus
[11] = test system: Lepomis macrochirus; conditions: acute; duration: 96 hours; mortality

COc1cc(OC)nc(NC(=O)NS(=O)(=O)c2cc(NC=O)ccc2C(=O)N(C)C)n1 [Foramsulfuron]
LR50 ([1]; duration: 7 days): > 60 g/ha | LR50 [1]: > 5.6 g/ha | LC50 [2]: > 100 µg/mL | NOEC [3]: 100 mg/L | NOEC [4]: 100 mg/kg | LD50 [5]: > 2000 mg/kg | NOAEL ([6]; body weight): 50 mg/kg-day | NOEL ([6]; no effects): 500 mg/kg-day | NOEC [7]: 1000 mg/kg | LD50 ([8]; acute, oral, mortality): > 5000 mg/kg | NOEL ([8]; reproduction developmental, F, reproduction): 1430 mg/kg-day | NOAEL ([8]; reproduction developmental, duration: 2 years, reproduction): 25 mg/kg-day | LD50 ([9]; dermal): > 4.66 µg/piece | LD50 ([9]; duration: 48 hours, oral, unspecified): > 5 µg/piece | LD50 ([10]; acute, oral, mortality): > 2000 mg/kg | NOEL ([10]; reproduction developmental): 104 mg/kg-day | LC50 [11]: > 100 µg/mL
